Legend:
gyrase = conditions: cited from earlier work
[1] = target: T1, E. coli ParC^S80L topoisomerase IV (Escherichia coli, UniProt P0AFI2, S80L); format: biochemical; conditions: read-out: IC50, inhibition of DNA decatenation
[2] = target: T1, E. coli ParC^S80L topoisomerase IV; format: biochemical
[3] = target: T2, E. coli wild-type topoisomerase IV (Escherichia coli, UniProt P0AFI2); format: biochemical
[4] = target: T3, B. anthracis wild-type topoisomerase IV (Bacillus anthracis, UniProt A0A6H3AG07); format: biochemical; conditions: read-out: IC50, inhibition of DNA decatenation
[5] = target: T4, M. tuberculosis wild-type gyrase (Mycobacterium tuberculosis, UniProt P9WG47); format: biochemical
[6] = target: T5, B. anthracis wild-type gyrase (Bacillus anthracis, UniProt A0A6H3A7B1); format: biochemical; conditions: read-out: IC50, inhibition of DNA supercoiling
E. coli wild-type gyrase [7] = target: T6, E. coli wild-type gyrase (Escherichia coli, UniProt P0AES4); format: biochemical; conditions: read-out: IC50, inhibition of DNA supercoiling
[8] = target: T4, M. tuberculosis wild-type gyrase; format: biochemical; remark: listed apart in the source
[9] = target: T3, B. anthracis wild-type topoisomerase IV; format: biochemical
E. coli = conditions: cited from earlier work
E. coli wild-type gyrase [10] = target: T6, E. coli wild-type gyrase; format: biochemical
[11] = target: T2, E. coli wild-type topoisomerase IV; format: biochemical; conditions: read-out: IC50, inhibition of DNA decatenation
[12] = target: T5, B. anthracis wild-type gyrase; format: biochemical
[13] = tested on: Mycobacterium tuberculosis; conditions: cited from earlier work
E. coli GyrA^S83L gyrase [14] = target: T7, E. coli GyrA^S83L gyrase (Escherichia coli, UniProt P0AES4, S83L); format: biochemical
E. coli GyrA^S83L gyrase [15] = target: T7, E. coli GyrA^S83L gyrase; format: biochemical; remark: listed apart in the source
[16] = read-out: EC50, enhancement of single-stranded DNA cleavage

O=c1ccc2ncc(=O)n3c2n1C[C@H]3CN1CCC(NCc2cc3c(cn2)OCCC3)CC1 [gepotidacin]
type of gyrase-mediated DNA breaks induced (gyrase): induces only gyrase-mediated single-stranded DNA breaks

COc1ccc2ncc(C#N)c(CCN3CCC(NCc4cc5c(cn4)OCS5)CC3)c2c1 [GSK299423]
type of gyrase-mediated DNA breaks induced (gyrase): induces only gyrase-mediated single-stranded DNA breaks

CC[C@H](C)n1cc(C)c2c(C(=O)NCc3c(C)cc(C)[nH]c3=O)cc(-c3ccc(N4CCNCC4)nc3)cc21 [GSK126]
IC50 [1]: ~1400 nM
induction of DNA cleavage [2]: ineffective at inducing DNA cleavage
ability to induce DNA cleavage in the presence of ATP [3]: marginal
enhancement of double-stranded DNA breaks [3]: no enhancement of double-stranded breaks was observed
EC50 [3, 16]: < 500 nM
IC50 [4]: ~2300 nM
maximal decrease of supercoiling activity [5]: 60%
IC50 ([5]; read-out: IC50, inhibition of DNA supercoiling): ~75 µM
IC50 [6]: ~400 nM
IC50 (E. coli wild-type gyrase [7]): ~2000 nM
induction of double-stranded DNA breaks [8]: no ability to induce double-stranded breaks
enhancement of double-stranded DNA breaks [9]: no enhancement of double-stranded breaks was observed
EC50 [9, 16]: < 500 nM
Minimal Inhibitory Concentration (E. coli): 0.26 µM
induction of double-stranded DNA breaks (E. coli wild-type gyrase [10]): no ability to induce double-stranded breaks
levels of single-stranded DNA cleavage in the presence of ATP vs absence (E. coli wild-type gyrase [10]): considerably lower
IC50 [11]: ~1400 nM
induction of double-stranded DNA breaks [12]: no ability to induce double-stranded breaks
activity against the bacterium in a screen [13]: moderate activity
fold more potent in supercoiling inhibition than against wild-type enzyme (E. coli GyrA^S83L gyrase [14]): 5–10 fold
enhancement of DNA cleavage (E. coli GyrA^S83L gyrase [15]): no ability to enhance DNA cleavage

Reference: PMC7450530 (Biochemistry, 2019)
